Columns and labels:
Assay type in all cases: cell-based
[1] = tested on: Wnt activity (Sp5-Luc reporter, SW480 colon carcinoma cells); test: Screening assay for Wnt activity: Sp5-Luc reporter gene assay in SW480 colon carcinoma cells; conditions: Homo sapiens; for inhibition at 10 µM: SW480, read-out: percent inhibition at 10 μM; for EC50: Sp5-Luc reporter, SW480 cells, overnight incubation
Outline: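 SW480 colon carcinoma cells stably carrying Sp5 promoter (eight TCF/LEF sites)-driven firefly luciferase, plated at 4,000 cells/well in 1% FBS medium and incubated overnight at 37° C. Luminescence normalised to DMSO-only cells; EC50 from four-parameter variable-slope nonlinear regression.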

SW480 colon cancer cells = test: Cell viability assay (CellTiter-Blue) in SW480 colon cancer cells; conditions: Homo sapiens; for EC50: 96 h, SW480 cell viability, four days; for inhibition at 10 µM: SW480, read-out: percent inhibition at 10 μM
Outline: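 Fluorescence from resazurin reduced to resorufin by metabolically active cells was the read-out, taken after ~3 h with CellTiter-Blue.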

[2] = tested on: primary human fibroblasts derived from IPF patients (LL29 cells) treated with TGF-β1; test: Inhibition of the fibrotic process: αSMA staining in TGF-β1 treated LL29 fibroblasts; conditions: Fibroblast; for EC50: 96 h, % αSMA positive LL29 cells, TGF-β1 20 ng/mL, 4 days
Outline: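 IPF-patient-derived LL29 lung fibroblasts in F12 with 1% FBS, stimulated with TGF-β1 alongside compound; TGF-β1 plus DMSO wells served as controls. After 4 days, nuclei stained with 1 μM SYTOX green for 30 min at room temperature, alongside αSMA staining.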

[3] = tested on: primary human mesenchymal stem cells (hMSCs); test: Induction of chondrogenesis in hMSCs (chondrogenic nodules, Rhodamine B/Nile Red); conditions: 6 days; for Emax: relative to TGF-β3 (10 ng/mL) positive control, read-out: Max. Activity as % TGF-β3 activity; for EC50: concentration required to induce 50% levels of chondrogenesis vs TGF-β3, read-out: Conc (nM) of 50% TGF-β3 activity
Outline: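 Primary hMSCs at passages 3 to 6 were scored for chondrogenic nodules. Counts were normalized to the mean of 3 DMSO wells on the same plate, averaging 3 replicate wells per concentration. TGF-β3 served as positive control; reported values are the concentration giving 50% chondrogenesis plus maximum activity and its dose.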

IL-6 (THP-1 cells) = test: IL-6 inhibition in LPS-stimulated THP-1 monocytes (HTRF); conditions: Homo sapiens; for inhibition at 10 µM: THP-1, read-out: percent inhibition at 10 μM; for EC50: IL-6, THP-1 cells, LPS 500 ng/mL, 22 hours
Outline: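 THP-1 cells kept 24 h in 1% FBS medium, exposed to compound 2 h at 37 °C, then stimulated with 500 ng/mL LPS for 22 h. Secreted IL-6 quantified by HTRF (665/620 nm ratio), duplicates. Values normalized to DMSO; EC50 by four-parameter variable-slope regression.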

| Structure (SMILES) | EC50 [1] | EC50 (SW480 colon cancer cells) | EC50 (IL-6 (THP-1 cells)) | EC50 [3] | inhibition at 10 µM [1] | inhibition at 10 µM (SW480 colon cancer cells) | EC50 [2] | inhibition at 10 µM ([2]; read-out: percent inhibition at 10 μM) | Emax [3] | inhibition at 10 µM (IL-6 (THP-1 cells)) |
| --- | --- | --- | --- | --- | --- | --- | --- | --- | --- | --- |
| CS(=O)(=O)NCc1cc(F)cc(-c2nccc3[nH]c(-c4n[nH]c5cnc(-c6cncc(NC(=O)C7CCC7)c6)cc45)cc23)c1 [Compound 497, N-(5-(3-(4-(3-Fluoro-5-(methylsulfonamidomethyl)phenyl)-1H-pyrrolo[3,2-c]pyridin-2-yl)-1H-pyrazolo[3,4-c]pyridin-5-yl)pyridin-3-yl)cyclobutanecarboxamide] | > 10 µM | > 10 µM | > 10 µM | – | 27.2% | 12.8% | > 10 µM | 0% | 16% | 38.8% |
| CCC(=O)Nc1cncc(-c2cc3c(-c4cc5c(N6CCN(C)CC6)nccc5[nH]4)n[nH]c3cn2)c1 [Compound 225, N-(5-(3-(4-(4-Methylpiperazin-1-yl)-1H-pyrrolo[3,2-c]pyridin-2-yl)-1H-pyrazolo[3,4-c]pyridin-5-yl)pyridin-3-yl)propionamide] | > 10 µM | > 10 µM | 0.743 µM | 30 nM | 52.4% | 7.9% | 5.3 µM | – | 70% | – |
| CN(C)c1cncc(-c2cc3c(-c4cc5cnccc5[nH]4)n[nH]c3cn2)c1 [Compound 259, 5-(3-(1H-Pyrrolo[3,2-c]pyridin-2-yl)-1H-pyrazolo[3,4-c]pyridin-5-yl)-N,N-dimethylpyridin-3-amine] | 3.06 µM | 1.6 µM | 2.21 µM | 300 nM | – | – | 0.401 µM | – | 101% | – |
| CCCCC(=O)Nc1cncc(-c2cc3c(-c4cc5cnccc5[nH]4)n[nH]c3cn2)c1 [Compound 271, N-(5-(3-(1H-Pyrrolo[3,2-c]pyridin-2-yl)-1H-pyrazolo[3,4-c]pyridin-5-yl)pyridin-3-yl)pentanamide] | 3.88 µM | > 10 µM | 4.61 µM | – | – | 26.2% | 4.69 µM | – | 50% | – |
| CC(C)C(=O)Nc1cncc(-c2cc3c(-c4cc5c(-c6ccncc6)nccc5[nH]4)n[nH]c3cn2)c1 [Compound 121, N-(5-(3-(4-(Pyridin-4-yl)-1H-pyrrolo[3,2-c]pyridin-2-yl)-1H-pyrazolo[3,4-c]pyridin-5-yl)pyridin-3-yl)isobutyramide] | > 10 µM | > 10 µM | > 10 µM | – | 6.2% | 19.7% | 9.81 µM | – | 32% | 0% |

These reach a lower EC50 [1]. Values come first.

| EC50 [1] | EC50 (SW480 colon cancer cells) | EC50 (IL-6 (THP-1 cells)) | EC50 [3] | Structure (SMILES) | inhibition at 10 µM [1] | inhibition at 10 µM (SW480 colon cancer cells) | EC50 [2] | inhibition at 10 µM ([2]; read-out: percent inhibition at 10 μM) | Emax [3] | inhibition at 10 µM (IL-6 (THP-1 cells)) |
| --- | --- | --- | --- | --- | --- | --- | --- | --- | --- | --- |
| 0.305 µM | 0.931 µM | 0.733 µM | 30 nM | CCC(=O)Nc1cncc(-c2cc3c(-c4cc5c(-c6cccc(F)c6)nccc5[nH]4)n[nH]c3cn2)c1 [Compound 1, N-(5-(3-(4-(3-Fluorophenyl)-1H-pyrrolo[3,2-c]pyridin-2-yl)-1H-pyrazolo[3,4-c]pyridin-5-yl)pyridin-3-yl)propionamide] | – | – | 0.235 µM | – | 51% | – |
| 0.03 µM | > 10 µM | 0.393 µM | 10 nM | Fc1ccccc1-c1nccc2[nH]c(-c3n[nH]c4cnc(-c5cn[nH]c5)cc34)cc12 [Compound 539, 3-(4-(2-Fluorophenyl)-1H-pyrrolo[3,2-c]pyridin-2-yl)-5-(1H-pyrazol-4-yl)-1H-pyrazolo[3,4-c]pyridine] | – | 44.4% | 0.076 µM | – | 89% | – |
| 1.51 µM | 2.45 µM | 1.1 µM | 300 nM | CS(=O)(=O)NCc1cc(F)cc(-c2nccc3[nH]c(-c4n[nH]c5cnc(-c6cncc(OCc7ccccc7)c6)cc45)cc23)c1 [Compound 774, N-(3-(2-(5-(5-(Benzyloxy)pyridin-3-yl)-1H-pyrazolo[3,4-c]pyridin-3-yl)-1H-pyrrolo[3,2-c]pyridin-4-yl)-5-fluorobenzyl)methanesulfonamide] | – | – | 0.363 µM | – | 115% | – |
| 0.399 µM | 2.25 µM | 0.623 µM | 30 nM | CC(C)C(=O)Nc1cncc(-c2cc3c(-c4cc5cnccc5[nH]4)n[nH]c3cn2)c1 [Compound 261, N-(5-(3-(1H-Pyrrolo[3,2-c]pyridin-2-yl)-1H-pyrazolo[3,4-c]pyridin-5-yl)pyridin-3-yl)isobutyramide] | – | – | 0.472 µM | – | 61% | – |
